How the values were obtained:
[1] = test system: Phakopspora pachyrhizi SDM Y131F I475T isolates; design: method as in PMID 23589453; details: isolates from soybean plants in Brazil; cited from earlier work
[2] = test system: S. cerevisiae strain AD2Δ (native wild-type ScLDM); experiment: Broth microdilution drug susceptibility assay (MIC80), host strain AD2Δ; assay type: cell-based; details: Saccharomyces cerevisiae; strain AD2Δ; 48 h, 30 °C, pH 6.8; mean (± SEM), n = 3; read-out: MIC80
Procedure: Yeast strains used in this study (Supplementary Table S1) were prepared using the AD2Δ strain of S. cerevisiae as a host, using an established protocol. AD2Δ is hypersensitive to xenobiotics due to the deletion of seven major ABC transporters, including those responsible for the efflux of azole drugs. It is also deleted of the PDR3 transcriptional regulator, but contains the gain-of-function Pdr1-3 transcriptional regulator mutation that leads to constitutive overexpression from the PDR5 locus.
(§1) Azole susceptibility was measured as the mean drug concentration required to inhibit 80% of yeast growth (MIC80) compared to a non-drug control, using a standard broth microdilution assay. Serial dilutions of short- (FLC and VCZ), medium- (VT-1161), and long-tailed (ITC and PCZ) azole drugs, and the control drugs micafungin (MCF) and amphotericin B (AMB), were prepared in a 96-well microtiter plate in complete synthetic media lacking uracil, buffered to pH 6.8 [34]. Control and test cells were seeded at an optical density of 600 nm (OD600) of 0.005 (~1.5 × 10^4 colony forming units). After incubation for 48 h at 30 °C with constant agitation (200 rpm), the OD600 nm of each well was measured using a Synergy 2 multi-mode plate reader (BioTek Instruments, Winooski, VT, USA). The experiment was repeated three times (a total of nine measurements for the response of each strain to each drug). GraphPad Prism 5.0 software was used for statistical analysis, using a one-way analysis of variance with a Bonferroni post-hoc test. The statistical significance of comparisons was accepted when p < 0.05.

[3] = test system: S. cerevisiae strain AD3Δ ScErg11 (AD3Δ) overexpressing wild-type ScLDM6×His; experiment: Broth microdilution drug susceptibility assay (MIC80), strain AD3Δ ScErg11; assay type: cell-based, Saccharomyces cerevisiae; details: for MIC80: Saccharomyces cerevisiae, 48 h, 30 °C, pH 6.8, mean (± SEM), n = 3, read-out: MIC80; for MIC80 / MIC80/Relative Amount of ScLDM6×His: strain AD3Δ; for MIC80/Relative Amount of ScLDM6×His: relative expression 1
Procedure: (§2) The native ScERG11 gene in yeast cells containing mutant ScERG11-6×His constructs in the PDR5 locus was disrupted by homologous recombination with a cassette encoding the His1 selection marker and sequences homologous with the regions bordering the endogenous ScERG11 ORF to create strains AD3Δ ScErg11 Y140H, AD3Δ ScErg11 I471T and AD3Δ ScErg11Y140H I471T [43]. Transformants were selected on SD-His agar plates incubated at 30 °C for 48–72 h. Genomic DNA was extracted, and DNA sequencing as above was used to confirm deletion of the native ERG11. Strain AD3Δ ScErg11 (denoted as AD3Δ), which overexpresses wild-type ScLDM6×His from the PDR5 locus and has the native ScERG11 gene disrupted, was used as a control strain [43].
as §1

[4] = test system: S. cerevisiae strain AD3Δ ScErg11 Y140H expressing ScLDM6×His Y140H; experiment: Broth microdilution drug susceptibility assay (MIC80), strain AD3Δ ScErg11 Y140H; assay type: cell-based, Saccharomyces cerevisiae; details: for MIC80: Saccharomyces cerevisiae, 48 h, 30 °C, pH 6.8, mean (± SEM), n = 3; for MIC80 / MIC80/Relative Amount of ScLDM6×His / fold-resistance based on the relative amount of recombinant enzyme compared with strain AD3Δ: strain Y140H; for MIC80/Relative Amount of ScLDM6×His / fold-resistance based on the relative amount of recombinant enzyme compared with strain AD3Δ: relative expression 0.74
Procedure: as §2, §1

[5] = test system: S. cerevisiae strain AD3Δ ScErg11 I471T expressing ScLDM6×His I471T; experiment: Broth microdilution drug susceptibility assay (MIC80), strain AD3Δ ScErg11 I471T; assay type: cell-based, Saccharomyces cerevisiae; details: for MIC80: Saccharomyces cerevisiae, 48 h, 30 °C, pH 6.8, mean (± SEM), n = 3; for MIC80 / MIC80/Relative Amount of ScLDM6×His / fold-resistance based on the relative amount of recombinant enzyme compared with strain AD3Δ: strain I471T; for increased susceptibility compared with AD3Δ: strain AD3Δ ScErg11 I471T, not corrected for expression; for MIC80/Relative Amount of ScLDM6×His / fold-resistance based on the relative amount of recombinant enzyme compared with strain AD3Δ: relative expression 0.51
Procedure: as §2, §1

[6] = test system: S. cerevisiae strain AD3Δ ScErg11 Y140H I471T expressing ScLDM6×His Y140H I471T; experiment: Broth microdilution drug susceptibility assay (MIC80), strain AD3Δ ScErg11 Y140H I471T; assay type: cell-based, Saccharomyces cerevisiae; details: for resistance conferred, relative expression taken into account: ScLDM6×His Y140H I471T (0.41 of wild-type) vs AD3Δ; for MIC80/Relative Amount of ScLDM6×His / fold-resistance based on the relative amount of recombinant enzyme compared with strain AD3Δ: strain Y140H+I471T, relative expression 0.41
Procedure: as §2, §1

[7] = test system: C. albicans strain SC5314; experiment: Agarose disk diffusion assay, control strain SC5314; assay type: cell-based, Candida albicans; details: for effect of Mdr1 inhibitor MCC1189 on azole susceptibility: SC5314, MCC1189 at 6 µM in the assay medium; for effect of Cdr1p inhibitor RC21v3 on azole susceptibility: SC5314, RC21v3 at 6 µM in the assay medium
Procedure: (§3) Agarose diffusion assays were carried out as described previously using the Darlington strain of C. albicans (Pfizer Ltd., Sandwich, UK) and the control C. albicans database strain SC5314, which is not resistant to azoles. The Cdr1p-specific inhibitor RC21v3 and the CaMdr1p-specific inhibitor MCC1189 (MicroCombiChem, Wiesbaden, Germany), included in the assay medium at 6 µM, were used to investigate the contribution of efflux pumps to azole resistance in the Darlington strain [49, 50, 51].

[8] = test system: C. albicans Darlington strain; experiment: Agarose disk diffusion assay, Darlington strain; assay type: cell-based, Candida albicans; details: for effect of Mdr1 inhibitor MCC1189 on azole susceptibility: MCC1189 at 6 µM in the assay medium; for effect of Cdr1p inhibitor RC21v3 on azole susceptibility: RC21v3 at 6 µM in the assay medium; for agarose diffusion susceptibility: no efflux pump inhibitor
Procedure: as §3

[9] = target: wild-type and Y140F/H mutants of ScLDM6×His; design: method as in earlier work; details: no significant differences, ref 5 (supplement; Sagatova et al. 2016); cited from earlier work
[10] = test system: S. cerevisiae test and control strains (AD2Δ, AD3Δ and mutants); experiment: Broth microdilution MIC80, comparison across the various cell types tested; assay type: cell-based, Saccharomyces cerevisiae; details: p > 0.05
Procedure: as §1

[11] = Saccharomyces cerevisiae, strain Y140H + I471T, 48 h, 30 °C, pH 6.8, mean (± SEM), n = 3

SMILES	resistance conferred by the double mutation Y131F I475T [1]	MIC80 [2] [µM]	MIC80 [3] [µM]	MIC80/Relative Amount of ScLDM6×His [3] [nM]	MIC80 [4] [µM]	MIC80/Relative Amount of ScLDM6×His [4] [nM]	fold-resistance based on the relative amount of recombinant enzyme compared with strain AD3Δ [4] [×]	MIC80 [5] [µM]	increased susceptibility compared with AD3Δ [5]	MIC80/Relative Amount of ScLDM6×His [5] [nM]	fold-resistance based on the relative amount of recombinant enzyme compared with strain AD3Δ [5] [×]	MIC [6, 11] [µM]	resistance conferred, relative expression taken into account [6] [fold]	MIC80/Relative Amount of ScLDM6×His [6] [nM]	fold-resistance based on the relative amount of recombinant enzyme compared with strain AD3Δ [6] [×]	effect of Mdr1 inhibitor MCC1189 on azole susceptibility [7]	effect of Cdr1p inhibitor RC21v3 on azole susceptibility [7]	effect of Mdr1 inhibitor MCC1189 on azole susceptibility [8]	effect of Cdr1p inhibitor RC21v3 on azole susceptibility [8]	agarose diffusion susceptibility [8]	other results
CC(C)(C)C(O)(CCc1ccc(Cl)cc1)Cn1cncn1 (stereo not shown) [tebuconazole]	~ 100 fold																				
CC[C@@H]([C@H](C)O)n1ncn(-c2ccc(N3CCN(c4ccc(OC[C@@H]5CO[C@@](Cn6cncn6)(c6ccc(F)cc6F)C5)cc4)CC3)cc2)c1=O [PCZ, Posaconazole]		0.16	0.423	423	0.33	445	1.1	0.27	1.6 fold	527	1.3	0.265	1.5	646	1.5	no effect on susceptibility	increased susceptibility	no effect on susceptibility	increased susceptibility	resistant	susceptibility compared with AD3Δ cells ([4]; cells overexpressing ScLDM6×His Y140H, not corrected for expression): slightly increased susceptibility; Kd [9]: ~500 nM
Fc1ccc([C@]2(Cn3cncn3)O[C@H]2c2ccccc2Cl)cc1 (racemic) [epoxiconazole]	~ 100 fold																				
O[C@@](Cn1cnnn1)(c1ccc(F)cc1F)C(F)(F)c1ccc(-c2ccc(OCC(F)(F)F)cc2)cn1 [VT-1161]		0.0288	0.0754	75.4	0.116	157	2.1	0.0346	2.2 fold	67.9	0.90	0.0676	2.2	165	2.2	did not alter the susceptibility	did not alter the susceptibility	did not alter the susceptibility	did not alter the susceptibility	resistant	resistance conferred, relative amount of recombinant ScLDM6×His taken into account ([4]; ScLDM6×His Y140H vs AD3Δ): 2.1 fold; resistance of cells containing the Y140H mutation in ScLDM6×His ([4]; discussion, significant but modest): 2 fold; MIC80 higher than strain AD3Δ ScErg11 ([4]; strain AD3Δ ScErg11 Y140H vs AD3Δ, not corrected for expression, p < 0.001): 1.5 fold; agarose diffusion susceptibility ([7]; SC5314, no efflux pump inhibitor): susceptible
C[C@@H]1[C@H](O)[C@@H](C)/C=C/C=C/C=C/C=C/C=C/C=C/C=C/[C@H](O[C@@H]2O[C@H](C)[C@@H](O)[C@H](N)[C@@H]2O)C[C@@H]2O[C@](O)(C[C@@H](O)C[C@@H](O)[C@H](O)CC[C@@H](O)C[C@@H](O)CC(=O)O[C@H]1C)C[C@H](O)[C@H]2C(=O)O [AMB, amphotericin B]		2.18	2.34		2.19			2.26	not											mild resistance	effect of ScLDM6×His overexpression on susceptibility to control antifungals ([3]; strain AD3Δ vs AD2Δ): did not modify susceptibility; MIC80 [6, 11]: 2.14 µM; differences between MIC80s for the various cell types tested [10]: no statistically significant differences

Source: paper PMC8621857, “Structural Insights into the Azole Resistance of the Candida albicans Darlington Strain Using Saccharomyces cerevisiae Lanosterol 14α-Demethylase as a Surrogate” (Journal of Fungi, 2021)
